Reference: ChEMBL document CHEMBL5257038, “Active Natural Product Scaffolds against Trypanosomatid Parasites: A Review” (J Nat Prod, 2018)
One block for each compound: values may come before it.

How the values were obtained:
[1] = Selectivity index, ratio of IC50 for cytotoxicity against African green monkey Vero cells to IC50 for antileishmanial activity against amastigote form of Leishmania donovani; type: toxicity, cell-based; conditions: read-out: Ratio IC50
[2] = tested on: Leishmania donovani; test: Antileishmanial activity against amastigote form of Leishmania donovani assessed as parasite growth inhibition; type: functional, organism-based
[3] = Selectivity index, ratio of IC50 for cytotoxicity against African green monkey Vero cells to IC50 for antitrypanosomal activity against Trypanosoma cruzi amastigote; type: toxicity, cell-based; conditions: read-out: Ratio IC50
[4] = tested on: Trypanosoma cruzi; test: Antitrypanosomal activity against intracellular Trypanosoma cruzi amastigote assessed as reduction in parasite growth; type: functional, organism-based
[5] = tested on: Trypanosoma cruzi (intracellular amastigotes); test: Antiparasitic activity against Trypanosoma cruzi intracellular amastigotes assessed as reduction in cell viability at 50 uM relative to control
[6] = Selectivity index, ratio of CC50 for cytotoxicity against HEK293T cells to EC50 for antitrypanosomal activity against bloodstream form of Trypanosoma brucei brucei; type: toxicity, cell-based; conditions: human, read-out: Ratio CC50/EC50
[7] = tested on: Trypanosoma brucei brucei; test: Antitrypanosomal activity against bloodstream form of Trypanosoma brucei brucei assessed as reduction in parasite growth; type: functional, organism-based
[8] = tested on: Trypanosoma cruzi (intracellular amastigotes); test: Antiparasitic activity against Trypanosoma cruzi intracellular amastigotes assessed as reduction in cell viability at 50 uM relative to control; remark: listed apart in the source
[9] = Selectivity index, ratio of CC50 for cytotoxicity against human HepG2 cells to EC50 for antitrypanosomal activity against bloodstream form of Trypanosoma brucei brucei; type: toxicity, cell-based; conditions: read-out: Ratio CC50/EC50
[10] = tested on: Leishmania donovani; test: Antileishmanial activity against Leishmania donovani intracellular amastigotes assessed as parasite growth inhibition; type: functional, organism-based
[11] = tested on: Trypanosoma cruzi; test: Antitrypanosomal activity against epimastigote form of Trypanosoma cruzi assessed as reduction in parasite growth; type: functional, organism-based
[12] = Selectivity index, ratio of EC50 for cytotoxicity against African green monkey Vero cells to EC50 for antileishmanial activity against Leishmania major promastigotes; type: toxicity, cell-based; conditions: read-out: Ratio EC50
[13] = Selectivity index, ratio of EC50 for cytotoxicity against African green monkey Vero cells to EC50 for antitrypanosomal activity against Trypanosoma brucei brucei; type: toxicity, cell-based; conditions: read-out: Ratio EC50
[14] = Selectivity index, ratio of EC50 for cytotoxicity against African green monkey Vero cells to EC50 for antitrypanosomal activity against epimastigote form of Trypanosoma cruzi; type: toxicity, cell-based; conditions: read-out: Ratio EC50
[15] = tested on: Leishmania major; test: Antileishmanial activity against Leishmania major promastigotes assessed as parasite growth inhibition; type: functional, organism-based
[16] = tested on: Trypanosoma brucei brucei; test: Antitrypanosomal activity against Trypanosoma brucei brucei; type: functional, organism-based
[17] = tested on: Trypanosoma cruzi; test: In vivo antitrypanosomal activity against Trypanosoma cruzi infected in mouse assessed as fold reduction in parasitemia measured upto 30 days; type: functional; conditions: time <= 30 day
[18] = tested on: Trypanosoma cruzi; test: In vivo antitrypanosomal activity against Trypanosoma cruzi infected in mouse assessed as survival rate measured upto 30 days relative to control; type: functional; conditions: time <= 30 day
[19] = tested on: Leishmania amazonensis; test: Antileishmanial activity against Leishmania amazonensis promastigotes assessed as parasite growth inhibition; type: functional, organism-based
[20] = tested on: Leishmania mexicana; test: Antileishmanial activity against Leishmania mexicana promastigotes assessed as parasite growth inhibition; type: functional, organism-based
[21] = tested on: Trypanosoma brucei; test: Antitrypanosomal activity against Trypanosoma brucei; type: functional, organism-based
[22] = tested on: Leishmania amazonensis; test: Antileishmanial activity against Leishmania amazonensis intracellular amastigotes assessed as parasite growth inhibition; type: functional, organism-based
[23] = Selectivity index, ratio of CC50 for cytotoxicity against mouse J774.G8 cells to IC50 for antileishmanial activity against Leishmania amazonensis promastigotes; type: toxicity, cell-based; conditions: read-out: Ratio CC50/IC50
[24] = tested on: Trypanosoma brucei rhodesiense; test: Antitrypanosomal activity against bloodstream form of Trypanosoma brucei rhodesiense assessed as parasite growth inhibition; type: functional, organism-based
[25] = Selectivity index, ratio of CC50 for cytotoxicity against rat L6 cells to IC50 for antitrypanosomal activity against bloodstream form of Trypanosoma brucei rhodesiense; type: toxicity, cell-based; conditions: read-out: Ratio CC50/IC50
[26] = Selectivity index, ratio of CC50 for cytotoxicity against rat L6 cells to IC50 for […] activity against amastigote form of Leishmania donovani; type: toxicity, cell-based; conditions: read-out: Ratio CC50/IC50
[27] = tested on: Plasmodium berghei; test: In vivo antimalarial activity against GFP-transfected Plasmodium berghei ANKA infected in NMRI mouse assessed as reduction in parasitemia at 50 mg/kg/day, ip administered for 4 consecutive days relative to control; type: functional
[28] = tested on: Plasmodium berghei; test: In vivo antimalarial activity against GFP-transfected Plasmodium berghei ANKA infected in NMRI mouse assessed as reduction of parasitaemia at 100 mg/kg/day, po for 4 days relative to control; type: functional; conditions: 96 h, time 4 day
[29] = Selectivity index, ratio of IC50 for cytotoxicity against rat L6 cells to IC50 for antitrypanosomal activity against bloodstream form of Trypanosoma brucei rhodesiense; type: toxicity, cell-based; conditions: read-out: Ratio IC50
[30] = tested on: Leishmania amazonensis; test: Antileishmanial activity against Leishmania amazonensis amastigotes assessed as parasite growth inhibition; type: functional, organism-based
[31] = Inhibition of Trypanosoma brucei CLK1
[32] = tested on: Trypanosoma brucei; test: In vivo antitrypanosomal activity against Trypanosoma brucei infected in mouse assessed as cured animal rate at 10 mg/kg administered once daily for 7 days relative to control; type: functional; conditions: time 7 day
[33] = tested on: Trypanosoma brucei; test: Antitrypanosomal activity against bloodstream form of Trypanosoma brucei assessed as parasite growth inhibition; type: functional, organism-based
[34] = Selectivity index, ratio of IC50 for cytotoxicity against human MRC5 cells to IC50 for antileishmanial activity against amastigote stage of Leishmania infantum; type: toxicity, cell-based; conditions: read-out: Ratio IC50
[35] = Selectivity index, ratio of IC50 for cytotoxicity against human MRC5 cells to IC50 for antitrypanosomal activity against intracellular Trypanosoma cruzi amastigote; type: toxicity, cell-based; conditions: read-out: Ratio IC50
[36] = Selectivity index, ratio of IC50 for cytotoxicity against human MRC5 cells to IC50 for antitrypanosomal activity against bloodstream form of Trypanosoma brucei; type: toxicity, cell-based; conditions: read-out: Ratio IC50
[37] = tested on: Leishmania infantum; test: Antileishmanial activity against amastigote stage of Leishmania infantum; type: functional, organism-based
[38] = tested on: Trypanosoma cruzi; test: Antitrypanosomal activity against Trypanosoma cruzi amastigote; type: functional, organism-based; conditions: Trypanosoma cruzi
[39] = tested on: Trypanosoma brucei rhodesiense; test: Antitrypanosomal activity against Trypanosoma brucei rhodesiense bloodstream form
[40] = tested on: Trypanosoma cruzi; test: In vivo antitrypanosomal activity against Trypanosoma cruzi infected in mouse assessed as survival rate measured upto 50 days relative to control; type: functional; conditions: time <= 50 day
[41] = tested on: Trypanosoma cruzi; test: Antitrypanosomal activity against trypomastigote form of Trypanosoma cruzi assessed as reduction in parasite growth; type: functional, organism-based
[42] = tested on: Leishmania donovani; test: Antileishmanial activity against amastigote form of Leishmania donovani HU3 infected in Balb/c mouse assessed as parasite growth inhibition at 30 mg/kg, ip for 5 days relative to control; type: functional; conditions: HU3, 120 h, time 5 day
[43] = tested on: Leishmania donovani; test: Antileishmanial activity against Leishmania donovani promastigotes infected in golden hamster assessed as reduction in parasite load in spleen at 14.0 mg/kg administered twice per week for 4 weeks relative to control; type: functional; parameters: scale not given: the % may be the effect or the level left

Compound: C=C(C)[C@H]1[C@H]2[C@@H](OC(C)=O)C[C@@H](C)[C@@H]3C(OC)C=C(C)[C@@]213 (some centres undefined)
EC50 [10]: 5 µM

Compound: C=C1C(=O)O[C@@H]2[C@H]1CC[C@H](C)[C@@H]1CCC(=O)O[C@@]21C
EC50 [11]: 2.3 µM
fold change (FC) [17]: 2
Survival [18]: 20%
EC50 [19]: 5.7 µM
EC50 [20]: 4.5 µM
EC50 [4]: 3.4 µM

Compound: C/C=C/[C@]1(C)C[C@@](/C=C(\C)C[C@@H](CC)CC/C=C/CC)(CC)OO1
EC50 [21]: 5 µM

Compound: C=C1CC[C@@H](OC(C)=O)[C@H]2CC=C3[C@](C)(CC[C@]3(O)C(C)C)C[C@]12O
EC50 [22]: 18 µM
selectivity ratio [23]: 93
EC50 [19]: 5.5 µM

Compound: CC(C)[C@@H](C)/C=C/[C@@H](C)[C@H]1CC[C@@H]2[C@]1(C)CC[C@H]1[C@]23C=C[C@]2(C[C@@H](O)CC[C@]12C)OO3 [ERGOSTEROL PEROXIDE]
EC50 [11]: 16.8 µM
EC50 [30]: 4 µM
EC50 [19]: 13.9 µM

Compound: C=C1C(=O)O[C@@H]2[C@H]1CC[C@H](C)[C@]1(CCC(=O)O1)[C@@]2(C)O [PSILOSTACHYIN A]
EC50 [11]: 4.3 µM
Survival [40]: 100%
fold change (FC) [17]: 1.5
EC50 [20]: 0.42 µM
EC50 [41]: 12.5 µM

Compound: O=c1c(O)c(-c2ccc(O)c(O)c2)oc2cc(O)cc(O)c12 [QUERCETIN]
inhibition in vivo at 30 mg/kg [42]: 15%
Activity [43]: 90%
EC50 [7]: 25.8 µM
EC50 [2]: 3.3 µM

Now from value to compound, other results behind:

EC50 [4]: 6.5 µM
Compound: C/C1=C/C(=O)O[C@H](C(C)(C)C)CCC[C@H](O)CCC[C@H](O)CCC[C@H](O)CCC[C@@H](O)C[C@@H](O)C[C@H](O)CCC[C@@H](O)CCC[C@@H](O)C[C@@H](O)CCCCC1
selectivity ratio [1]: 1
EC50 [2]: 3 µM
selectivity ratio [3]: 2

EC50 [7]: 5.3 µM
Compound: C=C1CO[C@H]2/C=C(\C)CC[C@@H]3O[C@@]3(C)CC/C=C(\C)CC[C@@]12O
Activity [5]: 15.2%
selectivity ratio [6]: > 20
Activity [8]: 15.2%
selectivity ratio [9]: > 20

EC50 [11]: 12.7 µM
EC50 [16]: 5.1 µM
Compound: CCOC1C[C@H](CCCCOCc2ccccc2)O[C@H](Cn2cc([C@@H]3CCC[C@H](CCCCOCc4ccccc4)O3)nn2)C1 (some centres undefined)
selectivity ratio [12]: 33
selectivity ratio [13]: 100
selectivity ratio [14]: 39
EC50 [15]: 15.3 µM

EC50 [24]: 0.8 µM
EC50 [4]: 120 µM
Compound: NC1=N[C@]2([C@H](O)N1)[C@@H](Cl)[C@H](CCl)[C@H]1CN3C(=O)c4cc(Br)c(Br)n4[C@@H]4NC(N)=N[C@@]43[C@@H]12
EC50 [2]: 1.9 µM
selectivity ratio [25]: 10
selectivity ratio [26]: 4

EC50 [24]: 3.1 µM
Compound: O=C(O)c1ccc2c(n1)C(=O)C1=C(C2=O)S(=O)(=O)CCN1 [ACIDIATHIAZONE A]
inhibition in vivo at 50 mg/kg/day [27]: 85%
inhibition in vivo at 100 mg/kg/day [28]: 45%
selectivity ratio [29]: 50

EC50 [33]: 0.17 µM
Compound: COc1cc(O)c2c(c1)[C@H]1O[C@@H]1C[C@H](O)[C@H](O)C(=O)/C=C\C[C@H](C)OC2=O [HYPOTHEMYCIN]
IC50 [31]: 0.15 µM
Activity [32]: 33%

EC50 [37]: 8 µM
EC50 [33]: 7.9 µM
EC50 [4]: 8.9 µM
Compound: COc1c(O)cc2oc3cc(O)c(CC=C(C)C)c(O)c3c(=O)c2c1CC=C(C)C [MANGOSTIN]
selectivity ratio [34]: 0.93
selectivity ratio [35]: 0.84
selectivity ratio [36]: 0.95

EC50 [38]: 2 µM
EC50 [39]: 2.2 µM
Compound: Cn1c2nc3ccccc3c-2cc2ccccc21 [NEOCRYPTOLEPINE]
EC50 [2]: 49.5 µM
